Measurements taken from PubChem BioAssay (NCI).
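In this assay, cells in 96-well plates receive the compound at five concentrations for 48 hours. Endpoints are linearly interpolated between the surrounding concentrations. GI50: concentration for 50% inhibition of growth. TGI denotes the concentration required for complete inhibition of growth.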

Experiments:
Experiment in all cases: inhibition of tumour cell growth, NCI panel, 48 h
SK-MEL-5 melanoma = system: SK-MEL-5 melanoma
EKVX NSCLC = system: EKVX NSCLC
SF-539 CNS = system: SF-539 CNS
OVCAR-4 ovarian = system: OVCAR-4 ovarian
HL-60(TB) leukemia = system: HL-60(TB) leukemia
ACHN renal = system: ACHN renal
UACC-257 melanoma = system: UACC-257 melanoma
786-0 renal = system: 786-0 renal
SN12C renal = system: SN12C renal
OVCAR-8 ovarian = system: OVCAR-8 ovarian

Row | SMILES | TGI (SK-MEL-5 melanoma) [µM] | TGI (EKVX NSCLC) [µM] | TGI (SF-539 CNS) [µM] | TGI (OVCAR-4 ovarian) [µM] | TGI (HL-60(TB) leukemia) [µM] | TGI (ACHN renal) [µM] | TGI (UACC-257 melanoma) [µM] | TGI (786-0 renal) [µM] | TGI (SN12C renal) [µM] | GI50 (SK-MEL-5 melanoma) [µM] | GI50 (EKVX NSCLC) [µM] | GI50 (OVCAR-4 ovarian) [µM] | GI50 (ACHN renal) [µM] | GI50 (OVCAR-8 ovarian) [µM] | TGI (OVCAR-8 ovarian) [µM] | GI50 (786-0 renal) [µM] | GI50 (SN12C renal) [µM] | GI50 (SF-539 CNS) [µM] | GI50 (HL-60(TB) leukemia) [µM] | GI50 (UACC-257 melanoma) [µM]
1 | COC(=O)C(C(=O)C(=O)Nc1ccc([N+](=O)[O-])cc1)c1nc2cc(C)c(C)cc2[nH]c1=O (centres undefined) | > 100 | > 100 | > 100 | > 100 | > 100 | > 100 | > 100 | > 100 | > 100 |  |  |  |  |  |  |  |  |  |  | 
2 | O=C1C(Cl)=C(Nc2cccc(O)c2)C(=O)N1c1ccc(Cl)cc1Cl | 32.2 | > 100 |  | > 100 |  | > 100 |  | > 100 | 35.9 | 14.7 | 57.3 | 43.2 | 30.6 | 28 | 64.2 | 32.8 | 17.1 |  |  | 
3 | C=CCCC(O)c1ccc(CCCCCCCCCCC)o1 (centres undefined) | 31.5 | 32.9 | 34.3 |  | > 100 | 28.9 | 33.9 | 30.5 | 29 | 17 | 18.2 |  | 15.6 | 18.3 | 35.6 | 16.3 | 15.6 | 18.9 | 39.2 | 18.6
4 | O=C1CCCC(=O)C1C(=O)c1ccc(C(F)(F)F)cc1[N+](=O)[O-] | > 100 |  | > 100 | > 100 | > 100 | > 100 | > 100 | > 100 | > 100 | > 100 |  | > 100 | > 100 | > 100 | > 100 | > 100 | > 100 | > 100 | > 100 | > 100
5 | COc1cc(C2C(C(=O)OCc3ccccc3)=C(C)NC(C)=C2C(=O)OCc2ccccc2)cc(OC)c1OC |  | > 100 | > 100 | > 100 |  | > 100 | > 100 | > 100 |  |  | 2.81 | 3.39 | 2.79 | 4.52 | > 100 | 1.46 |  | 3.99 |  | 3.82
6 | CC(=O)Nc1ccc(S(=O)(=O)c2ccc(NC(C)=O)cc2)cc1 | > 100 | > 100 |  | > 100 | > 100 | > 100 | > 100 | > 100 | > 100 | > 100 | 64 | > 100 | > 100 | > 100 | > 100 | > 100 | > 100 |  | > 100 | > 100
7 | O=C1C(Cl)=C(Nc2ccccn2)C(=O)c2ccccc21 | 3.03 | 49.4 | 4.75 |  | 5.83 | 9.93 | 3.84 | 26.3 | 5.17 | 1.65 | 17.2 |  | 3 | 3.25 | 13 | 13.1 | 2.33 | 2.07 | 2.52 | 1.91
